Measured values published in patent publication US12697343B2, “Intravenous istaroxime for the treatment of acute heart failure” (Seismic Pharmaceuticals Operations LLC, priority 2021, dated 2026).
Counter-ions that a name gives are not always drawn.

Tested on: patients hospitalized for acute heart failure (AHF)
Experiment: Echocardiographic parameters (tissue Doppler echocardiography), phase II trial of 24 h istaroxime infusion
Assay type: in vivo, human
Design: E/e′ change from baseline to 24 h: dose or concentration left out as unconfirmed
Settings: for A wave mean change from baseline / CI mean change from baseline / E wave mean change from baseline / E/A ratio mean change from baseline / E/e′ ratio mean change from baseline / EDV Index mean change from baseline / EDV mean change from baseline / ESV Index mean change from baseline / ESV mean change from baseline / IVC diameter mean change from baseline / LAA mean change from baseline / LAV mean change from baseline / LAVI mean change from baseline / LVEF mean change from baseline / PASP mean change from baseline / SVI mean change from baseline / S′ mean change from baseline / TAPSE mean change from baseline / e′ mean change from baseline: 1.0 μg/Kg/min; for E/e′ change from baseline to 24 h (primary endpoint): 1.0 μg/kg/min (cohort 2), mITT, hydrochloride
Description: The measurement of one or more cardiac parameters disclosed herein can be measured by Echocardiography which may be performed on subjects according to international standards (see, for example, Lang R M et a I. J Am Soc Echocardiogr 2005; 18(12): 1440-63; Nagueh S F et al. Eur J Echocardiogr 2009; 10(2): 165-93; Evangelista A et a I. Eur J Echocardiogr 2008; 9(4):438-48).
In some embodiments, cardiac parameters can be measured as follows: • 1. Cardiac dimension measures: • a. Left ventricle end diastolic diameter (EDD): measured with M-mode echocardiography at the level of mitral valve (MV) leaflets from parasternal long axis view (PLAX) (normal range [N R]: 42-59 mm males and 39-53 mm females); • b. Left ventricle end systolic diameter (ESD): measured with M-mode echocardiography at the level of mitral valve (MV) leaflets from PLAX (N R: 25-35 mm): • c. Left ventricle end diastolic volume (EDV): measured with M-mode echocardiography at the level of mitral valve (MV) leaflets from PLAX (N R: 67-155 mL males and 56-104 mL females); • d. Left ventricle end systolic volume (ESV): measured with M-mode echocardiography at the level of mitral valve (MV) leaflets from PLAX (N R: 22-58 mL males and 19-49 mL females); • e. Left atrium diameter (LAD): measured at end-ventricular systole with M-mode echocardiography from PLAX. (N R: 30-40 mm males and 27-38 mm females) • f. Left atrium area (LAA): measured from apical four chamber view (NR: £20 cm2); and • g. Left atrium volume (LAV): derived from area-length measured from apical four chamber view (N R: 18-58 mL males and 22-52 mL females). • 2. Left ventricle diastolic function parameters: • a. E wave: measured from mitral valve pulsed wave Doppler, is the peak velocity of early filling. […] A wave: measured from mitral valve pulsed wave Doppler is the peak velocity of late atrial filling. Not evaluable in subjects with AF: • c. E wave deceleration time (EDT): measured from mitral valve pulsed wave Doppler represent the slope of the descending part of E wave; • d. E/A ratio: determines the type of diastolic filling pattern (normal E/A=1-2 and EDT=150-200 ms, abnormal relaxation E/A<1 and EDT>240 ms, pseudonormal E/A=0.8-1.5: restrictive E/A^32 and EDT <160 ms). Not evaluable in subjects with AF; • e. Ea: measured with tissue Doppler method at the lateral and septal side of the mitral annulus from apical four chamber view is the early diastolic velocity. The value has been calculated as the average between Ea lateral and Ea septal. (NR310 cm/s) (see Nagueh S F et al. Eur J Echocardiogr. 2009:10(2):165-93); • f. Aa: measured with tissue Doppler method at the lateral and septal side of the mitral annulus from apical four chamber view is the late atrial diastolic velocity. The value has been calculated as the average between Aa lateral and Aa septal. Not evaluable in subjects with AF; and • g. E/Ea ratio: this is a derived measure from E and Ea value. This is highly correlated with left ventricle filling pressure and with prognosis in subjects with HF. (NR: <13) (see Nagueh S F et al. supra). • 3. Left ventricle systolic function parameters: • a. Left ventricle ejection fraction (LVEF): measured with Simpson biplane method according to international recommendations from apical four chamber view and apical two chamber view. (NR ^355%) (see Lang R M et al. J Am Soc Echocardiogr. 2005:18(12): 1440-63); and • b. Sa: measured with tissue Doppler method at the lateral and septal side of the mitral annulus from apical four chamber view. The value has been calculated as the average between Sa lateral and Sa septal. […] Overall cardiac contraction parameters: • a. Stroke volume (SV): is a derived measure obtained with the application of Bernoulli's formula using the dimension of left ventricle outflow tract (LVOT) as diameter and LVOT time velocity integral as velocity. (NR>60 mL/beat); • b. Cardiac output (CO): is derived by the multiplication of SV× heart rate (HR) (NR: >4 L/min); • c. […]

[1] = 1.0 μg/kg/min, mean ± standard deviation

SMILES: C[C@]12CCC(=NOCCN)C[C@@H]1C(=O)C[C@@H]1[C@@H]2CC[C@]2(C)C(=O)CC[C@@H]12 [Istaroxime, (E,Z)-3-((2-aminoethoxy)imino)androstane-6,17-dione hydrochloride]
- A wave mean change from baseline (6 hours): 5.88 cm/s
- CI mean change from baseline (6 hours): 0.15 l/min/m^2
- E wave mean change from baseline (6 hours): -10.19 cm/s
- E/A ratio mean change from baseline (6 hours): −0.35
- E/e′ ratio mean change from baseline (6 hours): −2.05
- EDV Index mean change from baseline (6 hours): 0.64 ml/m^2
- EDV mean change from baseline (6 hours): 1.35 mL
- ESV Index mean change from baseline (6 hours): −2.42 ml/m^2
- ESV mean change from baseline (6 hours): -4.62 mL
- IVC diameter mean change from baseline (6 hours): −1.24 mm
- LAA mean change from baseline (6 hours): −1.03 cm^2
- LAV mean change from baseline (6 hours): -4.94 mL
- LAVI mean change from baseline (6 hours): −2.86 mL/m^2
- LVEF mean change from baseline (6 hours): 2.35%
- PASP mean change from baseline (6 hours): −2.60 mmHg
- SVI mean change from baseline (6 hours): 4.32 ml/beat/m^2
- S′ mean change from baseline (6 hours): 1.00 cm/s
- TAPSE mean change from baseline (6 hours): 1.56 mm
- e′ mean change from baseline (6 hours): -0.03 cm/s
- A wave mean change from baseline (24 hours): 9.00 cm/s
- CI mean change from baseline (24 hours): 0.15 l/min/m^2
- E wave mean change from baseline (24 hours): -14.06 cm/s
- E/A ratio mean change from baseline (24 hours): −0.65
- E/e′ ratio mean change from baseline (24 hours): −3.16
- EDV Index mean change from baseline (24 hours): −2.08 ml/m^2
- EDV mean change from baseline (24 hours): -3.67 mL
- ESV Index mean change from baseline (24 hours): −6.23 ml/m^2
- ESV mean change from baseline (24 hours): -11.39 mL
- IVC diameter mean change from baseline (24 hours): −2.23 mm
- LAA mean change from baseline (24 hours): −2.21 cm^2
- LAV mean change from baseline (24 hours): -12.94 mL
- LAVI mean change from baseline (24 hours): −7.32 mL/m^2
- LVEF mean change from baseline (24 hours): 3.82%
- PASP mean change from baseline (24 hours): −4.76 mmHg
- SVI mean change from baseline (24 hours): 5.49 ml/beat/m^2
- S′ mean change from baseline (24 hours): 0.81 cm/s
- TAPSE mean change from baseline (24 hours): 1.16 mm
- e′ mean change from baseline (24 hours): 0.10 cm/s
- A wave mean change from baseline (48 hours): 5.30 cm/s
- CI mean change from baseline (48 hours): 0.20 l/min/m^2
- E wave mean change from baseline (48 hours): -11.53 cm/s
- E/A ratio mean change from baseline (48 hours): −0.36
- E/e′ ratio mean change from baseline (48 hours): −2.21
- EDV Index mean change from baseline (48 hours): −1.86 ml/m^2
- EDV mean change from baseline (48 hours): -3.18 mL
- ESV Index mean change from baseline (48 hours): −4.46 ml/m^2
- ESV mean change from baseline (48 hours): -8.09 mL
- IVC diameter mean change from baseline (48 hours): −2.19 mm
- LAA mean change from baseline (48 hours): −0.94 cm^2
- LAV mean change from baseline (48 hours): -6.67 mL
- LAVI mean change from baseline (48 hours): −3.80 mL/m^2
- LVEF mean change from baseline (48 hours): 2.06%
- PASP mean change from baseline (48 hours): −3.00 mmHg
- SVI mean change from baseline (48 hours): 2.91 ml/beat/m^2
- S′ mean change from baseline (48 hours): 0.26 cm/s
- TAPSE mean change from baseline (48 hours): 0.31 mm
- e′ mean change from baseline (48 hours): 0.19 cm/s
- E/e′ change from baseline to 24 h (primary endpoint) (mean ± standard deviation): −3.16 ± 2.59
- E/e′ change from baseline to 24 h (primary endpoint) (mean ± standard deviation, listed as istaroxime): −3.16±2.59
- E/A ratio change at 24 h [1]: −0.65 ± 1.10
- LV ejection fraction change at 24 h [1]: 3.82 ± 4.14%
- LV end-diastolic volume index change at 24 h [1]: −2.08 ± 9.05 mL/m^2
- LV end-systolic volume index change at 24 h [1]: −6.23 ± 9.23 mL/m^2
- Left atrial area change at 24 h [1]: −2.21 ± 3.18 cm^2
- Left atrial volume index change at 24 h [1]: −7.32 ± 10.0 mL/m^2
- Stroke volume index change at 24 h [1]: 5.49 ± 4.98 mL/beat/m^2
- S′ change at 24 h [1]: 0.81 ± 1.01 cm/s
- E/e′ change from baseline to 24 h (per-protocol population): −3.19±2.63
